Measurements as given in publication PMC10454726 (International Journal of Molecular Sciences, 2023).

Experiments:
[1] = tested on: streptozotocin-induced diabetic rats; test: Oral glucose tolerance test in streptozotocin-induced diabetic rats; format: in vivo, Wistar rat; design: AUC of the OGTT: unit not given here
Procedure: (§1) After a week of acclimation, 35 male Wistar rats were given a single intraperitoneal dose of STZ (Sigma Chemical Co. Toluca, Estado de México, Mexico) at a dosage of 45 mg/kg of body weight, after fasting for 12 h overnight with free access to water. To prevent initial drug-induced hypoglycemia mortality, these animals were given a 10% sucrose solution 24 h after administration. STZ was dissolved in 0.1 M of sodium citrate buffer (pH 4.5) and administered in a final volume of 5 mL/kg. A week after STZ injection, diabetes in streptozotocin rats was confirmed by measuring fasting blood glucose (by glucose oxidase method). Animals with a blood glucose (tail vein) above 126 mg/dL were considered diabetic and used for the experiment to create groups 2, 3, 4, 5, 6, and 7 [1, 13]. Blood glucose levels were measured using a glucometer (Accu-Chek Active, Roche, Mannheim, Germany) and reactive strips (Accu-Chek Active Glucose test strips, Roche). The presence of hyperglycemia and insulin level confirmed a model very similar to T2D in humans. For the pharmacological study, the final number of animals was 35 male rats, with 3 rats being sacrificed during the treatment stage. One was administered with FC-114 and two with acarbose. The first rat was damaged during oral glucose administration in the OGTT at week 5, and the other rats had gastrointestinal complications in week 7.
(§2) The diabetic animals in group 2 (untreated) were given 4% v/v aqueous EtOH solution (vehicle of treatments) in a volume of 6.5 mL/kg body weight. The other groups (3–7) received different treatments for 14 days (weeks 5 to 7). […] All of the treatments were at equimolar doses of PIO and adjusted to the weekly weight of each rat. […] The commercial PIO tablet (30 mg) was crushed in 7.5 mL of vehicle and given to each animal in 4.0 mg/mL of suspension. The FC-114 and FC-122 suspensions were created at 6.2 and 6.0 mg/mL, respectively. The commercial acarbose tablet (50 mg) was crushed in 7.5 mL of the vehicle and given to each animal in a suspension of 6.6 mg/mL. Each suspension was used within 2 days of its preparation, and the administration volume was near to 2.5 mL for each rat.
The OGTT was carried out in weeks 3, 4, 5, 6, and 7. Prior to the OGTT, all animal groups fasted overnight for eight hours with free access to water. Each rat was weighed and then received a 2 g/kg glucose overload orally and blood samples were taken from the tail vein [13, 97]. Glucose levels were measured using a glucometer (Accu-Chek Active, Roche, Mannheim, Germany) at 0, 30, 60, 90, 120, and 180 min after glucose administration. The AUC of the OGTT was calculated using the blood glucose concentration over time and the GraphPad Prism 8.0.1 software package (GraphPad Software; Science Inc., San Diego, CA, USA) was used to compare the effectiveness of the treatments.

[2] = tested on: streptozotocin-induced diabetic rats; test: Weekly fasting glucose in streptozotocin-induced diabetic rats; format: in vivo, Wistar rat; settings: after 7 and 14 days of treatment (weeks 6 and 7)
Procedure: as §1, §2

[3] = tested on: streptozotocin-induced diabetic rats; test: Animal weight, food and water consumption in streptozotocin-induced diabetic rats; format: in vivo, Wistar rat
Procedure: Six female (three for each compound: FC-114 and FC-122) (220 ± 10 g, for the acute toxicity assay) and forty male (215 ± 20 g, for the pharmacologic study) albino Wistar rats were acquired from the Isolation and Animal Facility Unit, Facultad de Estudios Superiores Cuautitlán (FESC), Universidad Nacional Autónoma de México (UNAM). They were kept in standard polypropylene boxes under controlled temperature (24 ± 4 °C) on a 12 h light/dark cycle and provided conventional food (formula 5001, Rat Chow) and purified water ad libitum. […] At the end of the experiment, the animals were taken to the humanitarian endpoint by the intraperitoneal (ip) administration of 75 mg/kg of sodium pentobarbital to perform a necropsy in the bioterium of FESC, UNAM. During the necropsy, blood serum was extracted to quantify glucose, triacylglycerides, cholesterol, and insulin. The study was conducted based on the guidelines of the Declaration of Helsinki and approved by the Institutional Review Board: Internal Committee for the Care and Use of Experimentation Animals (CICUAE, according to the initials in Spanish, C23_02 on March 2023) of the FESC UNAM (Mexico). It complies with the Mexican norm for this matter (NOM-062-ZOO-1999, Technical Specifications for the Production, Care, and Use of Laboratory Animals, SAGARPA), as well as the Guide for the Care and Use of Laboratory Animals of the National Research Council and National Institutes of Health (NIH Publications No. 8023, revised 1978).
as §1, §2

[4] = Cytotoxic effect on Human Foreskin fibroblasts (SRB); format: cell-based; settings: HFF-1 cells
Procedure: However, at high concentrations, they can be harmful to cells. For humans, doses less than 100 mg/day are considered safe. […] Therefore, we conducted cytotoxicity assays on Human Foreskin fibroblasts (HFF-1) and an AOT on female Wistar rats to assess their safety.
In a 96-well plate, 7000 cells per well of Human Foreskin fibroblasts (HFF-1) were cultured. […] Untreated cells were also included as a negative control. At the end of the incubation period, the cell contents were precipitated with 50 µL of a 50% aqueous solution of trichloroacetic acid (TCA) at 4 °C for 1 h. The supernatant was discarded and washed 5 times with distilled water. Afterward, the plates were allowed to dry at room temperature. The cell contents were incubated with 100 µL of a 0.04% sulforhodamine B (SRB) solution for 1 h at room temperature. The excess SRB was removed by washing with a 1% aqueous acetic acid solution. […] With the data obtained, the viability of treated cells was calculated by comparing the control without treatment. CC50 value was determined by employing BioStat Pro 5.9.8 software (AnalystSoft Inc., Brandon, FL, USA).

[5] = Week 5 (day 1 of treatment), oral, glibenclamide 0.6, FC-114 51.3, FC-122 49.1, PIO 30, acarbose 54.3 mg/kg/day
[6] = Week 6 (day 7 of treatment), same doses
[7] = Week 7 (day 14 of treatment), same doses
[8] = after 7 days of treatment (weeks 5 to 6)

Structure (SMILES): CC1(C)c2[nH]c3ccc(C(F)(F)F)cc3c2C[C@]2(C)[C@H]3C(=O)C=C4[C@@H]5C[C@@](C)(C(=O)O)CC[C@]5(C)CC[C@@]4(C)[C@]3(C)CC[C@@H]12 [FC-114]
- AUC of the OGTT [1, 5]: 53,895
- AUC of the OGTT [1, 6]: 62,944
- AUC of the OGTT [1, 7]: 57,131
- fasting glucose levels [2]: halt the continuous increase of glucose levels
- animal weight compared to the untreated group (T2D) ([3]; 14 days of treatment, weeks 5 to 7): difference in weight
- food intake [3, 8]: maintained their increased food consumption
- food intake ([3]; after 14 days of treatment (weeks 6 to 7)): tended to decrease toward normal levels
- CC50 at 48 h [4]: 59.5 ± 3 µM

Structure (SMILES): Cc1ccc(-n2ncc3c2C(C)(C)[C@@H]2CC[C@]4(C)[C@H](C(=O)C=C5[C@@H]6C[C@@](C)(C(=O)O)CC[C@]6(C)CC[C@]54C)[C@@]2(C)C3)cc1 [FC-122]
- AUC of the OGTT [1, 5]: 58,941
- AUC of the OGTT [1, 6]: 57,003
- AUC of the OGTT [1, 7]: 53,076
- glucose blood levels in OGTT compared to untreated animals ([1]; after 14 days of administration, ANOVA/Bonferroni): ranked third
- fasting glucose levels [2]: halt the continuous increase of glucose levels
- food intake [3, 8]: reduced food intake to near-normal levels
- water consumption ([3]; after 14 days of administration): decreased water consumption compared to acarbose and FC-114
- CC50 at 48 h ([4]; HFF-1 human foreskin fibroblasts): 68.4 ± 1 µM
